Laboratory results as given in paper PMC9855970, “Cysteine Biosynthesis in Campylobacter jejuni: Substrate Specificity of CysM and the Dualism of Sulfide” (Biomolecules, 2022).

Molecular target: T1, CysM (Cj0912) (Campylobacter jejuni, UniProt P71128)
T1 sequence (P71128 1-299): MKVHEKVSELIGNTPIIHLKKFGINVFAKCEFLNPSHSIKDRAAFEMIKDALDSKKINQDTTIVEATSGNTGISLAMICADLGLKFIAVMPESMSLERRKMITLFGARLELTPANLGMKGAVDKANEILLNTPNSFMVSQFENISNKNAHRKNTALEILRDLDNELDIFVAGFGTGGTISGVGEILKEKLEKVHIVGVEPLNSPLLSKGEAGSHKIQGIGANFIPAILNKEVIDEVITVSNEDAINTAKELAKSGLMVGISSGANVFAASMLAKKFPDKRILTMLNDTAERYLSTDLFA
Assay: UV-Vis absorbance at […] nm of purified enzyme
Format: binding
Conditions: 100 mM Tris-HCl pH 7.4, 50 mM NaCl; co-purified, covalent internal Schiff base with lysine

Cc1ncc(COP(=O)(O)O)c(C=O)c1O [PLP, pyridoxal 5′-phosphate]
UV-Vis absorbance at 412 nm of purified enzyme: Cj0912 purified with the PLP cofactor in situ
